Assay results from patent US20040077636A1, “Restricting reinstatement of drug use” (priority 2000, published 2004).
“Also recorded” adds a separate entry of the source.

Key:
[1] = test system: heroin-addicted rats; details: Euro. J. Neurosci. 12, 292-302, 2000; cited from earlier work
[2] = pre-treatment; literature reports; cited from earlier work
[3] = test system: NE release; details: doses employed in the present study; cited from earlier work
[4] = in vivo; cited from earlier work
[5] = test system: Male Wistar rats; assay: Extinction of alcohol self-administration behaviour; format: in vivo; details: for responding on the active lever, second day of extinction: among the three groups
Experimental: (§1) Animals: Male Wistar rats (Charles River, Montreal; weighing about 150-200 g. at the start of the experiments) were individually housed. Food and water were freely available in the home cages for 23 h/day. Food was not available during the 30 to 60 min daily session (see below). The temperature was maintained at 21±1° C. and the lights were on from 7 a.m. to 7 p.m. Rats were initially trained to consume alcohol in a limited access procedure (Linseman, 1987). The rats were given access to an alcohol solution and water in modified Richter tubes for 30 min/day in drinking cages. Alcohol solutions were provided in escalating concentrations: 3% w/v for the first 5 days 6% for the next 8 days and 12% for the last 10-12 days. Rats that consumed less than 0.4 g/kg per session during the last 10-12 days were excluded. All procedures were done in accordance with the guidelines of the Canadian Council on Animals Care and the ‘principle of laboratories animal care’ (NIH publication No. 85-23, revised 1985), and were approved by the local Animal Care Committee.
Apparatus: The alcohol self-administration system was built locally. Each operant chamber was equipped with two levers, symmetrically centered on the side panel. Responding on one lever (the active lever) activated the infusion pump (Razel Sci. Stamford, Conn., USA). […] During the infusion, a stimulus light above the active lever was turned on for 6 s. […] The grid floor of the operant cambers was connected to electric shock generators (Med Associates, Georgia, Vt., USA).
Training and extinction of alcohol self-administration: Operant self-administration of alcohol was initiated on a fixed ration-1 schedule of reinforcement (FR-1, each lever press is reinforced) for 60 min per day for 5-7 days per week. Responding on the FR-1 schedule was maintained for 10-14 sessions. The requirement for alcohol delivery was then increased to FR-2 for five sessions. Subsequently, the schedule requirement was increased to an FR-3 schedule for 8-12 days until the rats obtained three days of stable drug taking (variability of less than 20% of the mean). […]

[6] = test system: Male Wistar rats; assay: Footshock stress-induced reinstatement of alcohol seeking; format: in vivo; details: for reinstatement of alcohol seeking (responses on the active lever after footshock): vs saline, p<0.05
Experimental: Animals: Male Wistar rats (Charles River, Montreal; weighing about 150-200 g. at the start of the experiments) were individually housed. Food and water were freely available in the home cages for 23 h/day. Food was not available during the 30 to 60 min daily session (see below). The temperature was maintained at 21±1° C. and the lights were on from 7 a.m. to 7 p.m. Rats were initially trained to consume alcohol in a limited access procedure ([…], 1987). The rats were given access to an alcohol solution and water in modified Richter tubes for 30 min/day in drinking cages. Alcohol solutions were provided in escalating concentrations: 3% w/v for the first 5 days 6% for the next 8 days and 12% for the last 10-12 days. Rats that consumed less than 0.4 g/kg per session during the last 10-12 days were excluded. All procedures were done in accordance with the guidelines of the Canadian Council on Animals Care and the 'principle of laboratories animal care' (NIH publication No. 85-23, revised 1985), and were approved by the local Animal Care Committee. Apparatus: The alcohol self-administration system was built locally. Each operant chamber was equipped with two levers, symmetrically centered on the side panel. Responding on one lever (the active lever) activated the infusion pump (Razel Sci. Stamford, Conn., USA). […] During the infusion, a stimulus light above the active lever was turned on for 6 s. […] The grid floor of the operant cambers was connected to electric shock generators (Med Associates, Georgia, Vt., USA). Training and extinction of alcohol self-administration: Operant self-administration of alcohol was initiated on a fixed ration-1 schedule of reinforcement (FR-1, each lever press is reinforced) for 60 min per day for 5-7 days per week. Responding on the FR-1 schedule was maintained for 10-14 sessions. The requirement for alcohol delivery was then increased to FR-2 for five sessions. Subsequently, the schedule requirement was increased to an FR-3 schedule for 8-12 days until the rats obtained three days of stable drug taking (variability of less than 20% of the mean). During extinction sessions, presses on the previously active lever had no programmable consequences. […] Test for Reinstatement: Tests were conducted under extinction conditions. Intermittent footshock (0.8 mA; 0.5 s ON; a mean OFF period of 40 s; a range of 10-70 s) was administered for a period of 10 min just prior to the test sessions. Footshock was delivered through a scrambler to the stainless steel grid floor of the operant chambers. […] When the animals achieved extinction criterion, the effect of pre-treatment with lofexidine on footshock stress-induced reinstatement of alcohol seeking was determined as described above. […]

[7] = Footshock stress-induced reinstatement of cocaine seeking; format: in vivo; details: 0.150 mg/kg or 0.2 mg/kg
[8] = test system: Male Wistar rats; assay: Operant alcohol self-administration; format: in vivo; details: average of two consecutive sessions, vs saline
Experimental: as §1, with “Committee. […]” for “Committee.”
Analysis of variance with or without repeated measures were employed to analyse the data. […] In the first experiment, the average amounts of alcohol self-administered over a period of two days were used to quantify the effects of lofexidine treatment on alcohol self-administration. […]

[9] = test system: imidazoline-type 1 receptors; details: cited from earlier work
[10] = humans; cited from earlier work

Clc1cccc(Cl)c1N=C1NCCN1 [clonidine]
foot-shock-induced reinstatement of heroin-seeking [1]: effective | alcohol consumption [2]: reduction in alcohol consumption

Cc1csc(Cl)c1NC1=NCCN1 [tiamedine]
alcohol consumption [2]: reduction in alcohol consumption

N=C(N)NC(=O)Cc1c(Cl)cccc1Cl [guanfacine]
alcohol consumption [2]: reduction in alcohol consumption

CC(Oc1c(Cl)cccc1Cl)C1=NCCN1 (stereo not drawn) [lofexidine, Lofexidine]
stress induced NE release in the pre-frontal cortex and amygdala [3]: block | hypotensive effect [4]: minimal hypotensive effect | responding on the active lever, second day of extinction ([5]; 0.05 mg/kg IP daily): no significant differences | responding on the active lever, first day of extinction ([5]; 0.1 mg/kg IP daily 1 h before session, vs saline and lower dose group): significantly lower; also recorded: significant decrease | responding on the active lever, second day of extinction ([5]; 0.1 mg/kg IP daily): no significant differences | reinstatement of alcohol seeking (responses on the active lever after footshock) ([6]; 0.05 mg/kg IP 1 h before 10 min intermittent footshock): significantly suppressed | reinstatement of alcohol seeking (responses on the active lever after footshock) ([6]; 0.1 mg/kg IP 1 h before 10 min intermittent footshock): significantly suppressed | reinstatement of alcohol seeking (responses on the active lever after footshock) ([6]; 0.2 mg/kg IP 1 h before 10 min intermittent footshock): significantly suppressed | reinstatement of alcohol seeking ([6]; doses ranging from 0.05 to 0.2 mg/kg, intermittent footshock stress): completely suppressed | footshock stress-induced reinstatement of cocaine seeking [7]: attenuation; also recorded: suppressed | alcohol self-administration (amount of alcohol self-administered during 1-hour session) ([8]; 0.05 mg/kg IP 1 h before session): no significant differences; also recorded: did not reach statistical significance | alcohol self-administration (amount of alcohol self-administered during 1-hour session) ([8]; 0.1 mg/kg IP 1 h before session, p<0.05): significantly lower; also recorded: significantly suppresses | affinity for imidazoline-type 1 (I2) receptors [9]: high affinity | adverse side effects compared with clonidine, in particular hypotensive effects [10]: fewer adverse side effects
